One data set can be described thus: LD50, mouse. The conditions noted are these: in vivo.
Data set [1] in a line: pH dependency of the 19F NMR chemical shift (ppm/pH). In kind it is physicochemical. The conditions noted are these: change of 19F chemical shift per pH unit. The source says: Determination of the pH value with the aid of NMR spectroscopy is based on the measurement of the signals from a chemical compound which is in a pH-dependent, reversible equilibrium. If this equilibrium is slow with respect to the NMR time scale, then the signals of all components can be obtained, and the signal intensities correspond to the concentrations of the equilibrium components. In contrast thereto, with a fast equilibrium, only one signal can be measured, and the chemical shift is given by the chemical displacement of the equilibrium components and their concentration.
In a two-component equilibrium, with knowledge of the pKa value and the chemical shift of the components, it is then possible to calculate the pH value with the aid of the Henderson-Hasselbalch equation.
The frequency (chemical shift) of a fluorine line is determined by the position of the F atom in the molecule. This also holds true, in principle, for all other atomic nuclei, but the chemical shift is especially strongly pronounced in case of the fluorine atom. In order to observe and/or quantify a shift of the fluorine signal, a related (reference) line is needed. This frequency line can be the ^1 H signal, an external F standard or, respectively, an unchanging F line which is likewise within the area to be measured. […]

The nature of the next data set: pKa (37° C.). In kind it is physicochemical.

The results in this text go back to patent US5210290A, “Fluorobenzenesulfonamides” (Schering Aktiengesellschaft, priority 1990, dated 1993).

For orientation: LD50 means the dose at which mortality reaches 50%. Lower therefore signals a more toxic substance. Usually pKa stands for the pH at which an ionisable group is half protonated. A low value points to a stronger acid or weaker base.

The structures appear in SMILES notation.

The compound `O=C(O)CCNC(=O)CCS(=O)(=O)Nc1ccc(F)cc1C(F)(F)F` [Example 48, 3-[3-[N-(4-Fluoro-2-trifluoromethylphenyl)sulfamoyl]propionylamino]propionic Acid] gave an LD50 in the data set “LD50, mouse” of 4000 µmol/kg. Also, the ppm/pH in data set [1] worked out at 5.21 ppm/pH. In addition, the pKa in “pKa (37° C.)” worked out at 6.91.
In the case of `O=C(O)CN(CC(=O)O)C(=O)CS(=O)(=O)Nc1ccc(F)cc1C(F)(F)F` [Example 10, 2-[2-[N-(4-Fluoro-2-trifluoromethylphenyl)sulfamoyl]acetylimino]diacetic Acid], the LD50 in the data set “LD50, mouse” is at most 7500 µmol/kg. The ppm/pH in data set [1] was determined as 4.94 ppm/pH. In addition, in “pKa (37° C.)”, the pKa amounted to 6.68.
